Literature values, collected in patent US20030129222A1, “Liposomal imexon” (priority 2000, published 2003).
Where a name gives a salt, the structure may show the parent alone. Starred links: 1 amine or outer side, 2 acyl side, 3 side chain; linkers in the order of their positions; H or OH if unused. Positions of bridges follow the written chain, without caps; N, C: chain ends. Non-standard residues stand in square brackets, D forms with d. Residues, ends and D or L forms follow the SMILES beside them. Chains are numbered I, II in the order given. Actinocin(9to1) = Cc1c2oc3c(C)ccc(C(=O)[*:1])c3nc-2c(C(=O)[*:2])c(N)c1=O; NMeV = CN[C@H](C(=O)O)C(C)C; Sar = CNCC(=O)O

Details: cited from earlier work
[1] = single oral doses of about 0.6 mg/kg to about […]
[2] = intravenous injection, after distribution

## Cc1c2oc3c(C)ccc(C(=O)N[C@@H]4C(=O)N[C@H](C(C)C)C(=O)N5CCC[C@H]5C(=O)N(C)CC(=O)N(C)[C@@H](C(C)C)C(=O)O[C@@H]4C)c3nc-2c(C(=O)N[C@@H]2C(=O)N[C@H](C(C)C)C(=O)N3CCC[C@H]3C(=O)N(C)CC(=O)N(C)[C@@H](C(C)C)C(=O)O[C@@H]2C)c(N)c1=O [Actinomycin D] (I: T[dV]P[Sar][NMeV] / II: T[dV]P[Sar][NMeV]; ester I:1-I:C, II:1-II:C; linker I:N-II:N via Actinocin(9to1))
In vivo
  dose excreted intact into the bile: Half
  dose excreted intact into the urine: 10%
  half-life: about 36 hours
  passage of the blood-brain barrier: does not pass the blood-brain barrier

## O=C(O)CCCc1ccc(N(CCCl)CCCl)cc1 [Chlorambucil, 4-[bis(2-chlorethyl)amino] benzenebutanoic acid]
In vivo
  oral absorption: rapidly and completely absorbed
[1]
  terminal half-life of the parent drug: about 1.5 hours
  time to peak plasma chlorambucil levels: one

## N.N.[Cl][Pt][Cl] [Cisplatin]
In vivo
  oral absorption: not absorbed orally

## COc1cccc2c1C(=O)c1c(O)c3c(c(O)c1C2=O)C[C@@](O)(C(C)=O)C[C@@H]3O[C@H]1C[C@H](N)[C@H](O)[C@H](C)O1 [Daunorubicin, 5,12-Naphthacenedione, (8S-cis)-8-acetyl-10-[(3-amino-2,3,6-trideoxy-a-L-lyxo-hexanopyranosyl)oxy]-7,8,9,10-tetrahydro-6,8,11-trihydroxy-10-methoxy-, hydrochloride]
In vivo
  oral absorption: poor
  half-life of elimination: about 19 hours

## COc1cccc2c1C(=O)c1c(O)c3c(c(O)c1C2=O)C[C@@](O)(C(=O)CO)C[C@@H]3O[C@H]1C[C@H](N)[C@H](O)[C@H](C)O1 [Doxorubicin, 5,12-Naphthacenedione, (8s-cis)-10-[(3-amino-2,3,6-trideoxy-a-L-lyxo-hexopyranosyl)oxy]-7,8,9,10-tetrahydro-6,8,11-trihydroxy-8-(hydroxyacetyl)-1-methoxy-hydrochloride]
In vivo
  oral absorption: absorbed poorly
  elimination half-life: about 30 hours

## O=NN(CCCl)C(=O)NC1CCCCC1 [Lomustine, 1-(2-chloro-ethyl)-3-cyclohexyl-1 nitrosourea]
Oral radioactive lomustine, about 30 mg/m^2 to 100 mg/m^2
  radioactivity excreted in the form of degradation products within 24 hours: about half

## CC[C@]1(O)C[C@@H]2CN(CCc3c([nH]c4ccccc34)[C@@](C(=O)OC)(c3cc4c(cc3OC)N(C)[C@H]3[C@@](O)(C(=O)OC)[C@H](OC(C)=O)[C@]5(CC)C=CCN6CC[C@]43[C@@H]65)C2)C1 [Vinblastine]
In vivo
  oral absorption: Unpredictable absorption
  dose recovered in the feces after biliary excretion: about 10%
[2]
  plasma half-life, first: approximately 1 hours
  plasma half-life, second: ~20 h

## CC[C@]1(O)C[C@H]2CN(CCc3c([nH]c4ccccc34)[C@@](C(=O)OC)(c3cc4c(cc3OC)N(C=O)[C@H]3[C@@](O)(C(=O)OC)[C@H](OC(C)=O)[C@]5(CC)C=CCN6CC[C@]43[C@@H]65)C2)C1 [Vincristine]
In vivo
  oral absorption: Unpredictable absorption
plasma
  terminal half-life: about 24 hours

## COc1cccc2c1C(=O)c1c(O)c3c(c(O)c1C2=O)C[C@@](O)([C@H](C)O)C[C@@H]3O[C@H]1C[C@H](N)[C@H](O)[C@H](C)O1 [daunorubicinol]
Metabolite of daunorubicin
  half-life of active metabolite: about 27 hours
